What was measured:
[1] = target: Tyrosine-protein kinase JAK3 (Homo sapiens) (UniProt P52333); settings: Compound concentration 1000.0 nM
[2] = target: Activin receptor type-1B (Homo sapiens) (UniProt P36896); settings: Compound concentration 1000.0 nM
[3] = target: MAP kinase-interacting serine/threonine-protein kinase 1 (Homo sapiens) (UniProt Q9BUB5); settings: Compound concentration 1000.0 nM
[4] = test system: Tyrosine-protein kinase ABL1 (Homo sapiens), P00519 [Y253F]; settings: Compound concentration 1000.0 nM
[5] = target: Serine/threonine-protein kinase TNNI3K (Homo sapiens) (UniProt Q59H18); settings: Compound concentration 1000.0 nM
Sequence of Serine/threonine-protein kinase TNNI3K (Homo sapiens) (Q59H18 whole entry, the tested form may be a part): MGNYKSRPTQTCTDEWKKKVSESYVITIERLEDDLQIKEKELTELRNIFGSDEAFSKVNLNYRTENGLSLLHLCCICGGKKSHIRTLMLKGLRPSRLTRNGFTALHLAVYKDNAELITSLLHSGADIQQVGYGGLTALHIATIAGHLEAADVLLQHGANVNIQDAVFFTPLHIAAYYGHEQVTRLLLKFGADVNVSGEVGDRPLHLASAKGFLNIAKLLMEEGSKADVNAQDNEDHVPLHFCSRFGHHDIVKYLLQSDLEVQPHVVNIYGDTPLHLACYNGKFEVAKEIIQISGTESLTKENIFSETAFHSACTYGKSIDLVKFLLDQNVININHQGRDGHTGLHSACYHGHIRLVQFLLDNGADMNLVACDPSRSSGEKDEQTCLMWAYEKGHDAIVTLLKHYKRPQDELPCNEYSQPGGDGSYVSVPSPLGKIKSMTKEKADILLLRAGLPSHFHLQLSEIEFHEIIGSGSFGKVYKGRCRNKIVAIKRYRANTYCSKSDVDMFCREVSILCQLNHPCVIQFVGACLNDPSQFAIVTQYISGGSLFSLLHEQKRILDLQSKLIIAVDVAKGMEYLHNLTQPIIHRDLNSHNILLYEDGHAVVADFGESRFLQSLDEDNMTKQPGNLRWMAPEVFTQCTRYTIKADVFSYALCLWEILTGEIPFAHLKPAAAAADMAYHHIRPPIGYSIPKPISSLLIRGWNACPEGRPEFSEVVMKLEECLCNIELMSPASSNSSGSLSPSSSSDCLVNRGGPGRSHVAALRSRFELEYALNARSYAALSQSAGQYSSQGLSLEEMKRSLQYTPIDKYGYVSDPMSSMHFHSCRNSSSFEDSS

[6] = target: Ankyrin repeat and protein kinase domain-containing protein 1 (Homo sapiens) (UniProt Q8NFD2); settings: Compound concentration 1000.0 nM
Sequence of Ankyrin repeat and protein kinase domain-containing protein 1 (Homo sapiens) (Q8NFD2 whole entry, the tested form may be a part): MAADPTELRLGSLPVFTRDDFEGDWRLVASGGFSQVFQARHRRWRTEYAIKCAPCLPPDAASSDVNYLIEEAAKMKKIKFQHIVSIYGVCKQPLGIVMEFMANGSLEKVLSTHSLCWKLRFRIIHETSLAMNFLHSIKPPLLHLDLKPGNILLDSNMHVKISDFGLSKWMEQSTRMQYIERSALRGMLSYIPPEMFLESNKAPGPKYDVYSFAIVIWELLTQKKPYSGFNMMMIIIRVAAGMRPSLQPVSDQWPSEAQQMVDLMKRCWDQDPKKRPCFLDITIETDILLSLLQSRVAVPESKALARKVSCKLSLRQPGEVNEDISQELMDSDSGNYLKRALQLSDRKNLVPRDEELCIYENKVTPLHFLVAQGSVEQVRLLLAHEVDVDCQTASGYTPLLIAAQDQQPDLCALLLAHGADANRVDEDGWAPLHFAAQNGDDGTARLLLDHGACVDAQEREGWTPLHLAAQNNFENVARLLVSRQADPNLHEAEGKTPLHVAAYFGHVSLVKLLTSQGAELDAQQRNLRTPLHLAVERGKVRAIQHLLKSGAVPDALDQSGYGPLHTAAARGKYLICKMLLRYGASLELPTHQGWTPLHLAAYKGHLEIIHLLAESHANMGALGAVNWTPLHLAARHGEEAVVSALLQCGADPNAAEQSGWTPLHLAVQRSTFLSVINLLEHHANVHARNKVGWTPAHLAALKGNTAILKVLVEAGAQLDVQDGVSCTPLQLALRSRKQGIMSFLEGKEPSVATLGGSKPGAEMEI

[7] = target: 5-hydroxytryptamine receptor 1E (Homo sapiens) (UniProt P28566); settings: Compound concentration 10.0 uM
[8] = target: Sigma non-opioid intracellular receptor 1 (Homo sapiens) (UniProt Q99720); settings: Compound concentration 10.0 uM
Sequence of Sigma non-opioid intracellular receptor 1 (Homo sapiens) (Q99720 whole entry): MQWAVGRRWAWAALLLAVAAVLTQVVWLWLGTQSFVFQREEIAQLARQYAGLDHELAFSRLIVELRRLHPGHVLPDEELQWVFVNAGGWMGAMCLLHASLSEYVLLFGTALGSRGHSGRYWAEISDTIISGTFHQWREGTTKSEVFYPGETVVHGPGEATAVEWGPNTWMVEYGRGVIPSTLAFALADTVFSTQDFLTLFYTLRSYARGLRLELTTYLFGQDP

[9] = target: Dual specificity mitogen-activated protein kinase kinase 6 (Homo sapiens) (UniProt P52564); settings: Compound concentration 1000.0 nM
[10] = target: Protein kinase C iota type (Homo sapiens) (UniProt P41743); settings: Compound concentration 1000.0 nM
[11] = target: Dual specificity mitogen-activated protein kinase kinase 2 (Homo sapiens) (UniProt P36507); settings: Compound concentration 1000.0 nM
[12] = test system: Epidermal growth factor receptor (Homo sapiens), P00533 [L858R]; settings: Compound concentration 1000.0 nM
[13] = target: Calcium/calmodulin-dependent protein kinase type 1B (Homo sapiens) (UniProt Q6P2M8); settings: Compound concentration 1000.0 nM
[14] = target: Serine/threonine-protein kinase PAK 1 (Homo sapiens) (UniProt Q13153); settings: Compound concentration 1000.0 nM
[15] = target: Serine/threonine-protein kinase 32B (Homo sapiens) (UniProt Q9NY57); settings: Compound concentration 1000.0 nM
[16] = target: Serine/threonine-protein kinase Nek7 (Homo sapiens) (UniProt Q8TDX7); settings: Compound concentration 1000.0 nM
[17] = target: Ephrin type-B receptor 2 (Homo sapiens) (UniProt P29323); settings: Compound concentration 1000.0 nM
[18] = target: cGMP-dependent protein kinase 2 (Homo sapiens) (UniProt Q13237); settings: Compound concentration 1000.0 nM
[19] = target: Serine/threonine-protein kinase 32A (Homo sapiens) (UniProt Q8WU08); settings: Compound concentration 1000.0 nM
[20] = target: Histamine H3 receptor (Homo sapiens) (UniProt Q9Y5N1); settings: Compound concentration 10.0 uM
Sequence of Histamine H3 receptor (Homo sapiens) (Q9Y5N1 whole entry): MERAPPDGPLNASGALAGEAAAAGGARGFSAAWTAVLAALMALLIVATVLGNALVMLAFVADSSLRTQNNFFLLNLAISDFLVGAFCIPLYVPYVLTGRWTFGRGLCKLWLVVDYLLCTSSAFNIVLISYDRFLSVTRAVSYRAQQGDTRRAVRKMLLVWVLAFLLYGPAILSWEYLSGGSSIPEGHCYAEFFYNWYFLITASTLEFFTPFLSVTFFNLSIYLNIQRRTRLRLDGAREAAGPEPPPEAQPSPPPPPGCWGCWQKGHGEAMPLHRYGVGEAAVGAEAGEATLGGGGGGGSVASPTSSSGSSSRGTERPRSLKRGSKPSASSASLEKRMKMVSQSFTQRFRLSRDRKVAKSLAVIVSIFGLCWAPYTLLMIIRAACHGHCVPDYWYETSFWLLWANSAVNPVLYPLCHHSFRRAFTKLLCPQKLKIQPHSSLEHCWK

[21] = target: Ribosomal protein S6 kinase alpha-3 (Homo sapiens) (UniProt P51812); settings: Compound concentration 1000.0 nM
Sequence of Ribosomal protein S6 kinase alpha-3 (Homo sapiens) (P51812 whole entry): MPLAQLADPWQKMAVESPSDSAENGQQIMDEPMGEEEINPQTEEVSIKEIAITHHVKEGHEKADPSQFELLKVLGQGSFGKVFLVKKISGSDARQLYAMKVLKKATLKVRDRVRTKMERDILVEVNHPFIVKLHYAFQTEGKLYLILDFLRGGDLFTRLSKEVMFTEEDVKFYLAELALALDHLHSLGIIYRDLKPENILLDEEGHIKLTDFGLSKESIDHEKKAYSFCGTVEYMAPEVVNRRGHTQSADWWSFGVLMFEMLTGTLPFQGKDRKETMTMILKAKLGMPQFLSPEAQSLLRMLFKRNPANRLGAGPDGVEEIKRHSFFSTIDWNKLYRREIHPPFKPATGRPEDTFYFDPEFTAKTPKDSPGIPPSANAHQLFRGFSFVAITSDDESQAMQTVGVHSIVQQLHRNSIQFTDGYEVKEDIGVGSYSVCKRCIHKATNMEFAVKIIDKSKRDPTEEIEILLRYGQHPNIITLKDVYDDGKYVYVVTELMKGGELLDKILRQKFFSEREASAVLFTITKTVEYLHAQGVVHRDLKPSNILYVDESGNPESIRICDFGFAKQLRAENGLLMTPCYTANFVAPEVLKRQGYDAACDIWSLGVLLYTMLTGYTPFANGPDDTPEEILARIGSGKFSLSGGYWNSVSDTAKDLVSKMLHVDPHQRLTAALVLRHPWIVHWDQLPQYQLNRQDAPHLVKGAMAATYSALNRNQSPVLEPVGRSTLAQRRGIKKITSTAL

[22] = target: Vascular endothelial growth factor receptor 2 (Homo sapiens) (UniProt P35968); settings: Compound concentration 1000.0 nM
[23] = target: Death-associated protein kinase 1 (Homo sapiens) (UniProt P53355); settings: Compound concentration 1000.0 nM
Sequence of Death-associated protein kinase 1 (Homo sapiens) (P53355 whole entry, looked up): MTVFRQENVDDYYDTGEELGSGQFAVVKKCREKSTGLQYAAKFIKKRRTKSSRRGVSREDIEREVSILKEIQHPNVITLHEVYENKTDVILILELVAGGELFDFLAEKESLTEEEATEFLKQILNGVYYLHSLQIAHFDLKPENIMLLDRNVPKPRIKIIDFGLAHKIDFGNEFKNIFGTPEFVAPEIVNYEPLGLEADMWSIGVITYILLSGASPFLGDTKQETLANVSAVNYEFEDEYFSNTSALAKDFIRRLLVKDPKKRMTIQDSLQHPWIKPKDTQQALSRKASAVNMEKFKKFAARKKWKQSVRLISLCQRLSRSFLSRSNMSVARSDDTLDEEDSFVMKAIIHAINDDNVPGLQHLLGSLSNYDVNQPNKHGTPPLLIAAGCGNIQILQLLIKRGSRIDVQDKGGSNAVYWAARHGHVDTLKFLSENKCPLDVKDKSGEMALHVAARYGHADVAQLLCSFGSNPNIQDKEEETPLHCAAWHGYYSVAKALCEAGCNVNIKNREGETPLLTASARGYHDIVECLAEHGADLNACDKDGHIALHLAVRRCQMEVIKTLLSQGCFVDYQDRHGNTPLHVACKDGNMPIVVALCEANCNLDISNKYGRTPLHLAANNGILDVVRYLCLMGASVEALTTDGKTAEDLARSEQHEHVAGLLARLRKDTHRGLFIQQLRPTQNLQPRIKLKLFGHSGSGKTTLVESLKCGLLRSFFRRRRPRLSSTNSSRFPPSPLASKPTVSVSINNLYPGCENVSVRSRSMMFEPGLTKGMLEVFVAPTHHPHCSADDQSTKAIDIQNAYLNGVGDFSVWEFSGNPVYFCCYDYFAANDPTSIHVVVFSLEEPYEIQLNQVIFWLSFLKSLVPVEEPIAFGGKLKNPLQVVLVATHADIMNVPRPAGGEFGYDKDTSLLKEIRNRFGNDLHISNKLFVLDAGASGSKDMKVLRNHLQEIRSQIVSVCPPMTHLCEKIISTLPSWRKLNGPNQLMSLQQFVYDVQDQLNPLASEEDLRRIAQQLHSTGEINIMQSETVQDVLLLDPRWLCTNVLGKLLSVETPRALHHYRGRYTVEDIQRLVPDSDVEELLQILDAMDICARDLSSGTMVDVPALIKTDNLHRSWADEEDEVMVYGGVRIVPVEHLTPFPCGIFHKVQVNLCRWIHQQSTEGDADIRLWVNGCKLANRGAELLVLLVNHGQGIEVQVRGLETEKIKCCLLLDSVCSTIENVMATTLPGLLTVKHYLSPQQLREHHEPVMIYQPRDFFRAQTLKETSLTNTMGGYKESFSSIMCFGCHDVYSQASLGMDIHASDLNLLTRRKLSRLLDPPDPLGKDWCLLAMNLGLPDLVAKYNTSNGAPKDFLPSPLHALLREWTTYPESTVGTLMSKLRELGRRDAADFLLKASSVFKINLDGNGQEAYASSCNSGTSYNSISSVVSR

[24] = target: Serine/threonine-protein kinase PAK 4 (Homo sapiens) (UniProt O96013); settings: Compound concentration 1000.0 nM
[25] = target: Ribosomal protein S6 kinase alpha-2 (Homo sapiens) (UniProt Q15349); settings: Compound concentration 1000.0 nM
[26] = target: Receptor-interacting serine/threonine-protein kinase 2 (Homo sapiens) (UniProt O43353); settings: Compound concentration 1000.0 nM
Sequence of Receptor-interacting serine/threonine-protein kinase 2 (Homo sapiens) (O43353 whole entry): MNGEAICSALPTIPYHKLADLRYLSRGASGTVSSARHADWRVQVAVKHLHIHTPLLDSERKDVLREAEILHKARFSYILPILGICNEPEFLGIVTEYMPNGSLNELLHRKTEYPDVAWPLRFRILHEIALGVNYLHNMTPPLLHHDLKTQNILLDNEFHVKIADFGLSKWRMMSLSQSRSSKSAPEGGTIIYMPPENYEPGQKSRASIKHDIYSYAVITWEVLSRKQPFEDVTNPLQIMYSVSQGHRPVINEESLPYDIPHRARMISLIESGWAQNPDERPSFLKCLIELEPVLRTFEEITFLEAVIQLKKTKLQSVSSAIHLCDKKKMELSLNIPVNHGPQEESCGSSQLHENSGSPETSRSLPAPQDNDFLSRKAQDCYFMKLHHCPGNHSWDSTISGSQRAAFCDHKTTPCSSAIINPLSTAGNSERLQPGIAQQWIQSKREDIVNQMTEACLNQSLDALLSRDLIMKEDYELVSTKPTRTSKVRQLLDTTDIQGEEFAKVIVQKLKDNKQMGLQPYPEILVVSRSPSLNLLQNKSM

[27] = target: Tyrosine-protein kinase ABL2 (Homo sapiens) (UniProt P42684); settings: Compound concentration 1000.0 nM
[28] = target: Receptor tyrosine-protein kinase erbB-2 (Homo sapiens) (UniProt P04626); settings: Compound concentration 1000.0 nM
[29] = test system: Receptor-type tyrosine-protein kinase FLT3 (Homo sapiens), P36888 [K663Q]; settings: Compound concentration 1000.0 nM
[30] = target: Serine/threonine-protein kinase 38 (Homo sapiens) (UniProt Q15208); settings: Compound concentration 1000.0 nM
[31] = target: Tyrosine-protein kinase Fes/Fps (Homo sapiens) (UniProt P07332); settings: Compound concentration 1000.0 nM
[32] = target: Casein kinase I isoform alpha (Homo sapiens) (UniProt P48729); settings: Compound concentration 1000.0 nM
[33] = target: Receptor tyrosine-protein kinase erbB-4 (Homo sapiens) (UniProt Q15303); settings: Compound concentration 1000.0 nM
[34] = target: Phosphatidylinositol 4-phosphate 3-kinase C2 domain-containing subunit beta (Homo sapiens) (UniProt O00750); settings: Compound concentration 1000.0 nM
[35] = target: Tyrosine-protein kinase ZAP-70 (Homo sapiens) (UniProt P43403); settings: Compound concentration 1000.0 nM
[36] = test system: Proto-oncogene tyrosine-protein kinase receptor Ret (Homo sapiens), P07949 [V804L]; settings: Compound concentration 1000.0 nM
[37] = test system: Phosphatidylinositol 4,5-bisphosphate 3-kinase catalytic subunit alpha isoform (Homo sapiens), P42336 [Q546K]; settings: Compound concentration 1000.0 nM
[38] = target: Ribosomal protein S6 kinase alpha-5 (Homo sapiens) (UniProt O75582); settings: Compound concentration 1000.0 nM
[39] = test system: Tyrosine-protein kinase ABL1 (Homo sapiens), P00519 [H396P]; settings: Compound concentration 1000.0 nM
[40] = target: Cyclin-dependent kinase-like 3 (Homo sapiens) (UniProt Q8IVW4); settings: Compound concentration 1000.0 nM
[41] = target: Serine/threonine-protein kinase pim-1 (Homo sapiens) (UniProt P11309); settings: Compound concentration 1000.0 nM
[42] = target: Inhibitor of nuclear factor kappa-B kinase subunit epsilon (Homo sapiens) (UniProt Q14164); settings: Compound concentration 1000.0 nM
[43] = target: Alpha-2B adrenergic receptor (Homo sapiens) (UniProt P18089); settings: Compound concentration 10.0 uM
[44] = target: Dual specificity mitogen-activated protein kinase kinase 7 (Homo sapiens) (UniProt O14733); settings: Compound concentration 1000.0 nM
[45] = target: Serine/threonine-protein kinase PLK1 (Homo sapiens) (UniProt P53350); settings: Compound concentration 1000.0 nM

CCS(=O)(=O)c1cc2cc(C[C@](O)(CC(C)(C)c3ccc(F)cc3C(N)=O)C(F)(F)F)[nH]c2cn1
residual activity [1]: 72% | residual activity [2]: 100% | residual activity [3]: 97% | residual activity [4]: 93% | residual activity [5]: 80% | residual activity [6]: 89% | inhibition [7]: 4.75% | inhibition [8]: 10.1% | residual activity [9]: 80% | residual activity [10]: 100% | residual activity [11]: 95% | residual activity [12]: 100% | residual activity [13]: 77% | residual activity [14]: 95% | residual activity [15]: 94% | residual activity [16]: 100% | residual activity [17]: 100% | residual activity [18]: 85% | residual activity [19]: 84% | inhibition [20]: 11.7% | residual activity [21]: 93% | residual activity [22]: 83% | residual activity [23]: 92% | residual activity [24]: 100% | residual activity [25]: 81% | residual activity [26]: 67% | residual activity [27]: 80% | residual activity [28]: 100% | residual activity [29]: 100% | residual activity [30]: 91% | residual activity [31]: 100% | residual activity [32]: 100% | residual activity [33]: 100% | residual activity [34]: 89% | residual activity [35]: 71% | residual activity [36]: 100% | residual activity [37]: 80% | residual activity [38]: 94% | residual activity [39]: 100% | residual activity [40]: 100% | residual activity [41]: 100% | residual activity [42]: 100% | inhibition [43]: 24.7% | residual activity [44]: 99% | residual activity [45]: 100%

CCS(=O)(=O)c1cc2cc(C[C@@](O)(CC(C)(C)c3ccc(F)cc3C(N)=O)C(F)(F)F)[nH]c2cn1
residual activity [1]: 76% | residual activity [2]: 100% | residual activity [3]: 46% | residual activity [4]: 72% | residual activity [5]: 100% | residual activity [6]: 70% | inhibition [7]: 11.2% | inhibition [8]: 8.26% | residual activity [9]: 84% | residual activity [10]: 100% | residual activity [11]: 67% | residual activity [12]: 90% | residual activity [13]: 85% | residual activity [14]: 100% | residual activity [15]: 100% | residual activity [16]: 95% | residual activity [17]: 95% | residual activity [18]: 86% | residual activity [19]: 77% | inhibition [20]: 11.7% | residual activity [21]: 100% | residual activity [22]: 92% | residual activity [23]: 0% | residual activity [24]: 88% | residual activity [25]: 0% | residual activity [26]: 100% | residual activity [27]: 88% | residual activity [28]: 100% | residual activity [29]: 83% | residual activity [30]: 76% | residual activity [31]: 100% | residual activity [32]: 86% | residual activity [33]: 100% | residual activity [34]: 86% | residual activity [35]: 72% | residual activity [36]: 96% | residual activity [37]: 69% | residual activity [38]: 100% | residual activity [39]: 99% | residual activity [40]: 90% | residual activity [41]: 97% | residual activity [42]: 83% | inhibition [43]: 6.5% | residual activity [44]: 99% | residual activity [45]: 85%
